Data published in US20140073760A1, “USE OF AN ANG-(1-7) RECEPTOR AGONIST IN ACUTE LUNG INJURY” (Charite-Universitatsmedizin Berlin, priority 2008, published 2014).
“Also recorded” adds a separate entry of the source. Non-standard residues stand in square brackets, D forms with d. No end group written: not given here.

System: oleic acid induced acute lung injury
Experiment: Oleic acid induced acute lung injury (ALI) in anesthetized, ventilated rats
Format: in vivo, male Sprague-Dawley rats
Details: rat
Experimental: Experiments were performed in male Sprague-Dawley rats (Charles River Wiga GmbH, Sulzfeld, Germany) with a body weight (bw) of 330-360 g. Animals received care in accordance with the Guide for the Care and Use of Laboratory Animals (Institute of Laboratory Animal Resources, 7th edition 1996). The study was approved by the local animal care and use committee.
Rats were anesthetized by intraperitoneal injection of medetomidine (0.5 mg/kg bw, Domitor®, Dr. E. Graeub AG, Basel, Switzerland), fentanyl (0.05 mg/kg bw, JanssenCilag, Neuss, Germany) and midazolam (5 mg/kg bw, Dormicum®, Roche, Basel, Switzerland) as previously described (17). Following tracheotomy, the trachea was cannulated and ventilation was established (Advanced Animal Respirator, TSE Systems GmbH, Bad Homburg, Germany) with a tidal volume of 6 ml/kg bw at 80 breaths/min. Catheters (internal diameter 0.58 mm; Sims Portex Ltd., Hythe, United Kingdom) were introduced into the left carotid artery and the right internal jugular vein for monitoring of arterial blood pressure (AP), fluid replacement and drug delivery as previously described (18). An ultrasonic flowprobe (Transonic®, Transonic Systems Inc., Ithaca, N.Y.) was placed around the ascending aorta distal to the branching of the coronary arteries for continuous monitoring of cardiac output (CO). After median thoracotomy, a catheter was introduced via the right ventricle into the pulmonary artery for measurement of pulmonary artery pressure (PAP). AP, PAP and CO were continuously recorded by the software package DasyLab 32 (DasyLab, Moenchengladbach, Germany). Pulmonary vascular resistance (PVR) was calculated as arteriovenous pressure differences over flow under the assumption of a constant left atrial pressure of 2 mmHg.
In group 2 (OA), ALI was induced by intravenous infusion of 0.2 mg/kg oleic acid (Sigma, Munich, Germany) over 30 min in the absence of any treatment. In group 3 (OA+Ang-(1-7)), ALI was induced as in group II, and infusion of Ang-(1-7) at 5 pmol/kg per min was initiated immediately after ALI induction. In group 4 (OA+AVE0991), ALI was induced as in group II, and infusion of AVE0991 at 500 pmol/kg per min was initiated immediately after ALI induction. In two additional groups of n=6 each, in which only myeloperoxidase (MPO) activity was measured, infusion of the Ang-(1-7) receptor blocker A779 (10 pmol/kg per min) was initiated either alone (group 5) or in combination with Ang-(1-7) (5 pmol/kg per min; group 6) immediately after induction of ALI.
After surgical preparation and hemodynamic stabilization over at least 15 min, baseline hemodynamics were recorded and arterial blood gases analyzed (RapidLab 348; Chiron Diagnostics GmbH, Fernwald, Germany). Removed blood volume was replaced by hydroxyethyl starch (6% hydroxyethyl starch 200/0.6; Fresenius, Bad Homburg, Germany). Immediately after baseline recordings, 0.2 mg/kg oleic acid was infused intravenously over 30 min in groups II-VI or an equal volume of 0.9% NaCl in group I. In all groups, measurements were repeated in 60 min intervals up to a total of 4 h at which time animals were sacrificed by exsanguination. After in situ ligation of the right main bronchus, lungs were excised and processed for determination of wet-to-dry weight ratio and myeloperoxidase (MPO) activity as described below.
For determination of lung water content, wet-to-dry weight ratio was measured by use of the microwave drying technique (18). Recruitment of inflammatory cells was analyzed by measurements of MPO activity in lung homogenates as previously described (19). In brief, MPO activity was determined by a 3,3′-5,5′-tetramethylbenzidine (TMB)-based photometric assay, compared to appropriate standard curves, and expressed as units per gram lung tissue (U/g).
All data are presented as mean±SEM. Data were tested by Kruskal-Wallis test for differences between groups. Statistical significance was assumed at P<0.05.

Substance	OA-induced change in lung wet-to-dry weight ratio (Ang-(1-7) infusion 5 pmol/kg per min after OA, 4 h, FIG. 1(B))	systemic arterial pressure (systemic hypotension in OA-infused rats) (Ang-(1-7) infusion 5 pmol/kg per min after OA, 4 h, FIG. 1(C))	OA-induced change in pulmonary vascular resistance (Ang-(1-7) infusion 5 pmol/kg per min after OA, 4 h, FIG. 1(D))	OA-induced change in lung MPO activity (Ang-(1-7) infusion 5 pmol/kg per min after OA, 4 h, lung homogenates, FIG. 1(A))	development of OA-induced ALI (OA 0.2 mg/kg i.v. over 30 min, Ang-(1-7) infusion 5 pmol/kg per min started immediately after ALI induction, 4 h)	lung oedema and inflammation in oleic-acid induced ALI (infusion after OA, conclusion of the study)	rescue effect of Ang-(1-7) infusion on OA-induced ALI (lung MPO activity) (A779 10 pmol/kg per min in combination with Ang-(1-7) 5 pmol/kg per min after OA, only MPO measured)	OA-induced ALI (lung MPO activity) (A779 infusion 10 pmol/kg per min alone after OA, only MPO measured)
Asp^1-Arg^2-Val^3-Tyr^4-Ile^5-His^6-Pro^7 [Ang-(1-7)]	abrogated OA-induced changes	attenuated systemic hypotension	abrogated OA-induced changes	abrogated OA-induced changes	completely prevented the development of OA-induced ALI	completely prevents lung oedema and inflammation	–	–
Asp^1-Arg^2-Val^3-Tyr^4-Ile^5-His^6-D-Ala^7 (DRVYIH[dA]) [A779, reference compound]	–	–	–	–	–	–	blocks the rescue effect of Ang-(1-7) infusion; also recorded: lost after Mas blockade	aggravates OA-induced ALI; also recorded: aggravated after Mas blockade
